IC50 data for 24 compounds are collected here from patent publication US20240043395A1, “COMPOUNDS AND COMPOSITIONS AS MODULATORS OF TLR SIGNALING” (Neuropore Therapies, Inc., priority 2020, published 2024).

In test [1] the target is T1, human TLR2 (Homo sapiens (Human), UniProt O60603). In words: HEK-Blue hTLR2 antagonism assay (SEAP reporter), agonist Pam2CSK4. It counts as cell-based. The following applies: HEK-Blue hTLR2 cells; Pam2CSK4 (TLR2/6 agonist) at approx. 3×EC50; 18 h; 8-point dilutions. As for the experimental part:
(§1) Synthetic diacylated lipoprotein (Pam2CSK4, TLR2/6 agonist) and synthetic triacylated lipoprotein (Pam3CSK4, TLR1/2 agonist) were obtained from InvivoGen and were dissolved in endotoxin-free water to a concentration 1 mg/mL, vortexed until complete solubilization, and stored in aliquots at −20° C. Prior to addition to cells, an aliquot of the dissolved ligand was vortexed shortly and then was diluted in medium to 25 ng/mL Pam2CSK4 or 1000 ng/mL Pam3CSK4.
(§2) Test compounds were solubilized fresh to 10-20 mM stocks in DMSO and sonicated for 5-10 minutes in a water bath sonicator. Serial dilutions were prepared in DMSO, and then diluted in medium. The final concentration of DMSO used in the assay was 1%.
(§3) HEK-Blue hTLR2 reporter cells (InvivoGen) are HEK-293 cells stably expressing both the human TLR2 gene and a secreted embryonic alkaline phosphatase (SEAP) reporter construct downstream of NFκB promotor sites. HEK-Blue hTLR2 reporters were cultured according to manufacturer's protocol using Dulbecco's Modified Eagle Medium (DMEM; Gibco) containing 1× GlutaMax (Gibco), 10% heat-inactivated Fetal Bovine Serum (Gibco), Pen-Strep (50 U/mL penicillin, 50 μg/mL streptomycin, Gibco), 100 μg/mL Normocin (InvivoGen), and the selective antibiotic, lx HEK-Blue Selection (InvivoGen). Quanti-Blue reagent (InvivoGen) for detection and quantification of secreted alkaline phosphatase was dissolved in 100 mL of endotoxin-free water, warmed to 37° C. for 30 minutes and then filtered using a 0.2 μm membrane.
(§4) On day 1, 50 μL of each test compound dilution in duplicates or a vehicle control was added to each well of a 96-well plate followed by addition of 150 μL of HEK-Blue hTLR2 cell suspension (1×10^5 cells/well) and incubated at 37° C./5% CO2 for 2 h. Next, 50 μL of an approximate 3×EC50 concentration of each agonist (Pam2CSK4 or Pam3CSK4) was added to the wells containing test compounds or the vehicle control. The plates were then incubated at 37° C./5% CO2 for 18 h. For each assay run, non-treated HEK-Blue hTLR2 cells were treated with serial dilutions of agonists to determine EC50 values for the respective run.
(§5) On day 2, secreted alkaline phosphatase (SEAP) activity was detected in cell culture supernatants. In brief, 20 μL was collected from each well and transferred to a 96-well plate. Next, 200 μL of Quanti-Blue detection reagent was added to each well. Plates were incubated at room temperature for 15 min and SEAP activity was assessed by spectrophotometer OD reading at 655 nm. […] IC50 values were calculated based on 8-point dilutions for each compound.

The target in test [2] is T1, human TLR2. In words: HEK-Blue hTLR2 antagonism assay (SEAP reporter), agonist Pam3CSK4. It counts as cell-based. Conditions: HEK-Blue hTLR2 cells; Pam3CSK4 (TLR1/2 agonist) at approx. 3×EC50; 18 h; 8-point dilutions. As for the experimental part:
as §1, §2, §3, §4, §5

Structures are written as SMILES.

T1 sequence (O60603 21-784): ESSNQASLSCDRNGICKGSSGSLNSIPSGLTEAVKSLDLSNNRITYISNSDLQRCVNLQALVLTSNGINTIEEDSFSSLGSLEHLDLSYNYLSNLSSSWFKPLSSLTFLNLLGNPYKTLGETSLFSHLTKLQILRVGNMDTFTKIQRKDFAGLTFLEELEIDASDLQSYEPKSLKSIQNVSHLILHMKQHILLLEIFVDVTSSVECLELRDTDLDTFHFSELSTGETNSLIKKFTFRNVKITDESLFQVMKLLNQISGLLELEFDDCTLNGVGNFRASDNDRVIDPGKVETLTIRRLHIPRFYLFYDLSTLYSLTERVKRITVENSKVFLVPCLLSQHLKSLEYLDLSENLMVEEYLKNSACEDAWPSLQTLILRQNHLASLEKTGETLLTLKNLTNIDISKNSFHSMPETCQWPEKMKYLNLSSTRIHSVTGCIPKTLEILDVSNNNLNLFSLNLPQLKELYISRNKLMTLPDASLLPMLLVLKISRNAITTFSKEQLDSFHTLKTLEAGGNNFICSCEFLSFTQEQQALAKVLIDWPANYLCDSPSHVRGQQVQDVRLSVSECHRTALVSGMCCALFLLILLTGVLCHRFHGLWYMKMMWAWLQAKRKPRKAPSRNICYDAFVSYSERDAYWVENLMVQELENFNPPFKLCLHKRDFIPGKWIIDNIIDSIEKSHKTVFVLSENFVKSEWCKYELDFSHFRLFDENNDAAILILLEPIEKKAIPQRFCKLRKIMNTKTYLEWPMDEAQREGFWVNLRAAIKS

Usually IC50 stands for the concentration that gives 50% inhibition. Low values mean greater potency in that assay, high ones weaker potency in that assay. Consider `O=Cc1cc(C(=O)Nc2ncc(N3CCN(C4CC4)CC3)s2)cc(F)c1O` [Compound 5, N-(5-(4-cyclopropylpiperazin-1-yl)thiazol-2-yl)-3-fluoro-5-formyl-4-hydroxybenzamide], for which the IC50 in test [1] turned out to be 5.3 µM; in test [2], 2.7 µM.
Consider `O=Cc1cc(C(=O)N2CCC(c3ccc(N4CCCC4)cc3)C2)cc(F)c1O` (stereo not drawn) [Compound 82, 3-fluoro-2-hydroxy-5-(3-(4-(pyrrolidin-1-yl)phenyl)pyrrolidine-1-carbonyl)benzaldehyde], for which the values for the IC50 in test [1] and in test [2] were 8.4 µM and 3.5 µM, respectively.
Taken in the same sequence, the figures for `O=Cc1cc(C(=O)Nc2coc(-c3ccccc3)n2)cc(F)c1O` [Compound 15, 3-fluoro-5-formyl-4-hydroxy-N-(2-phenyloxazol-4-yl)benzamide] were 4.1 µM and 0.9 µM.
Taken in the same sequence, the figures for `O=Cc1cc(C(=O)N2CCOC(c3cccc(N4CCCC4)c3)C2)cc(F)c1O` (racemic) [Compound 150, rac-3-fluoro-2-hydroxy-5-(2-(3-(pyrrolidin-1-yl)phenyl)morpholine-4-carbonyl)benzaldehyde] were 7.5 µM and 3.1 µM.
Taken in the same sequence, the figures for `O=Cc1cc(-c2nc(-c3ccc(N4CCCC4)nc3)ns2)cc(F)c1O` [Compound 130, 3-fluoro-2-hydroxy-5-(3-(6-(pyrrolidin-1-yl)pyridin-3-yl)-1,2,4-thiadiazol-5-yl)benzaldehyde] were 1.3 µM and 0.8 µM.
Turning to `O=Cc1cc(C(=O)N2CCO[C@@H](c3ccc(N4CCCC4)cc3)C2)cc(F)c1O` (single isomer, unassigned) [Compound 148], the IC50 in test [1] stood at 4.99 µM; in test [2], 1.88 µM.
Taken in the same sequence, the figures for `COCCN1C(=O)Oc2c(F)cc(-c3nc(-c4ccc(N5CCCC5)cc4)ns3)cc2C1O` (stereo not drawn) [Compound 179, 8-fluoro-4-hydroxy-3-(2-methoxyethyl)-6-(3-(4-(pyrrolidin-1-yl)phenyl)-1,2,4-thiadiazol-5-yl)-3,4-dihydro-2H-benzo[e][1,3]oxazin-2-one] were 0.8 µM and 0.2 µM.
In the case of `COc1ccc(C2CN(C(=O)c3cc(F)c(O)c(C=O)c3)CCS2)cc1` (racemic) [Compound 152, rac-3-fluoro-2-hydroxy-5-(2-(4-methoxyphenyl)thiomorpholine-4-carbonyl)benzaldehyde], the IC50 in test [1] was found to be 14.2 µM; in test [2] it was 5.7 µM.
Taken in the same sequence, the figures for `O=Cc1cc(C(=O)N2CCN(c3ccc(N4CCCC4)nc3)CC2)cc(F)c1O` [Compound 140, 3-fluoro-2-hydroxy-5-(4-(6-(pyrrolidin-1-yl)pyridin-3-yl)piperazine-1-carbonyl)benzaldehyde] were 14 µM and 7.2 µM.
Taken in the same sequence, the figures for `CN1CCN(C(=O)Oc2c(F)cc(-c3nc(-c4ccc(N5CCCC5)cc4)ns3)cc2C=O)CC1` [Compound 175, 2-fluoro-6-formyl-4-(3-(4-(pyrrolidin-1-yl)phenyl)-1,2,4-thiadiazol-5-yl)phenyl 4-methylpiperazine-1-carboxylate] were 1.2 µM and 0.3 µM.
Take `O=Cc1cc(C(=O)N2CCC(c3ccc(N4CCCC4)nc3)CC2)cc(F)c1O` [Compound 37, 3-fluoro-2-hydroxy-5-(4-(6-(pyrrolidin-1-yl)pyridin-3-yl)piperidine-1-carbonyl)benzaldehyde]: the IC50 in test [1] came to 6.2 µM; in test [2] it was 4.8 µM.
Turning to `O=Cc1cc(C(=O)N2CCC(c3cccc(N4CCCC4)c3)CC2)cc(F)c1O` [Compound 35, 3-fluoro-2-hydroxy-5-(4-(3-(pyrrolidin-1-yl)phenyl)piperidine-1-carbonyl)benzaldehyde], the results for the IC50 in test [1] and in test [2] were 13.8 µM and 8 µM, respectively.
Taken in the same sequence, the figures for `CN(C)C(=O)Oc1c(F)cc(-c2nc(-c3ccc(N4CCCC4)cc3)ns2)cc1C=O` [Compound 173, 2-fluoro-6-formyl-4-(3-(4-(pyrrolidin-1-yl)phenyl)-1,2,4-thiadiazol-5-yl)phenyl dimethylcarbamate] were 0.9 µM and 0.5 µM.
In the case of `O=Cc1cc(C(=O)Nc2ncc(-c3ccc(C(F)(F)F)cc3)s2)cc(F)c1O` [Compound 115, 3-fluoro-5-formyl-4-hydroxy-N-(5-(4-(trifluoromethyl)phenyl)thiazol-2-yl)benzamide], the values for the IC50 in test [1] and in test [2] were 1 µM and 0.6 µM, respectively.
In the same order, the values of `O=Cc1cc(C(=O)N2CCCC2c2ccc(N3CCCC3)cc2)cc(F)c1O` (racemic) [Compound 155, rac-3-fluoro-2-hydroxy-5-(2-(4-(pyrrolidin-1-yl)phenyl)pyrrolidine-1-carbonyl)benzaldehyde] are 15.7 µM and 9.62 µM.
In the case of `CN(C(=O)c1cc(F)c(O)c(C=O)c1)C12CC(c3ccccc3)(C1)C2` [Compound 158, 3-fluoro-5-formyl-4-hydroxy-N-methyl-N-(3-phenylbicyclo[1.1.1]pentan-1-yl)benzamide], the figures for the IC50 in test [1] and in test [2] were 5.9 µM and 2.25 µM, respectively.
Taken in the same sequence, the figures for `O=Cc1cc(C(=O)N2CC(c3ccc(N4CCCC4)cc3)C2)cc(F)c1O` [Compound 84, 3-fluoro-2-hydroxy-5-(3-(4-(pyrrolidin-1-yl)phenyl)azetidine-1-carbonyl)benzaldehyde] were 6.2 µM and 3.8 µM.
Taken in the same sequence, the figures for `O=Cc1cc(C(=O)Nc2ccc(N3CCCC3)nn2)cc(F)c1O` [Compound 92, 3-fluoro-5-formyl-4-hydroxy-N-(6-(pyrrolidin-1-yl)pyridazin-3-yl)benzamide] were 59 µM and 39 µM.
Taken in the same sequence, the figures for `O=Cc1cc(C(=O)Nc2nnc(N3CCCCC3)s2)cc(F)c1O` [Compound 1, 3-fluoro-5-formyl-4-hydroxy-N-(5-(piperidin-1-yl)-1,3,4-thiadiazol-2-yl)benzamide] were 45.8 µM and 21.8 µM.
Regarding `O=Cc1cc(C(=O)N2CCOC(c3ccc(N4CCCC4)cc3)C2)cc(F)c1O` (racemic) [Compound 147, 3-fluoro-2-hydroxy-5-(2-(4-(pyrrolidin-1-yl)phenyl)morpholine-4-carbonyl)benzaldehyde], the IC50 in test [1] turned out to be 4.7 µM; in test [2], 1.6 µM.
Taken in the same sequence, the figures for `O=Cc1cc(-c2cnc(-c3ccc(N4CCCC4)nc3)s2)ncc1O` [Compound 129, 5-hydroxy-2-(2-(6-(pyrrolidin-1-yl)pyridin-3-yl)thiazol-5-yl)isonicotinaldehyde] were 0.7 µM and 0.4 µM.
Taken in the same sequence, the figures for `O=Cc1cc(C(=O)N2CCO[C@H](c3ccc(N4CCCC4)cc3)C2)cc(F)c1O` (single isomer, unassigned) [Compound 149] were 4.34 µM and 1.74 µM.
In the same order, the values of `CN1C(=O)Oc2c(F)cc(-c3nc(-c4ccc(N5CCCC5)cc4)ns3)cc2C1O` (stereo not drawn) [Compound 178, 8-fluoro-4-hydroxy-3-methyl-6-(3-(4-(pyrrolidin-1-yl)phenyl)-1,2,4-thiadiazol-5-yl)-3,4-dihydro-2H-benzo[e][1,3]oxazin-2-one] are 1.2 µM and 0.43 µM.
For the compound `O=Cc1cc(C(=O)Nc2ncc(N3CCCCC3)s2)cc(F)c1O` [Compound 3, 3-fluoro-5-formyl-4-hydroxy-N-(5-(piperidin-1-yl)thiazol-2-yl)benzamide], the IC50 stood at 2.3 µM in test [1] and 1.7 µM in test [2].
